The results in this text go back to article PMC12678798, “Discovery of an allosteric binding site for anthraquinones at the human P2X4 receptor” (Nature Communications, 2025).

A word on the EC50: it is the concentration giving half of the maximal effect. A higher EC50 goes with weaker potency.

This assay has as its target T1, wild-type (wt) human (h) P2X4 receptor (Homo sapiens, UniProt Q99571).
T1 construct: host or cells: Xenopus laevis oocytes injected with cRNA (pNKS2 vector)
Description: Two-electrode voltage clamp (TEVC), wt hP2X4 in Xenopus laevis oocytes. It counts as cell-based. As to conditions: TEVC at -60 mV. Here is the method:
Xenopus laevis frogs were from Nasco International (Fort Atkinson, WI, USA) and kept at the Core Facility Animal Models (CAM) of the BMC of LMU Munich, Germany (Az: 4.3.2–5682/LMU/BMC/CAM) in accordance with the EU Animal Welfare Act. […] Fifty nanoliters of cRNA (0.5 µg/µL) were injected using a Nanoject II injector (Science Products, Drummond, USA) and oocytes were kept in ND96 (96 mM NaCl, 2 mM KCl, 1 mM MgCl2, 1 mM CaCl2, 5 mM HEPES, pH 7.4–7.5) supplemented with 5 μg/mL gentamicin at 16 °C.
cDNA encoding human P2X4 receptor (NM_002560.3) was obtained from BioCat GmbH (Heidelberg, Germany) and cloned into the pNKS2 vector[87] using Gibson Assembly (E2621L, New England Biolabs, USA) according to the manufacturer’s instructions. Point mutations were introduced by site-directed mutagenesis using KLD Enzyme Mix (M0554S, New England Biolabs, USA). All constructs were verified by full-length cDNA sequencing (Eurofins Genomics, Germany). Plasmids were linearized with NotI-HF (R3189S, New England Biolabs, USA) and purified using the MinElute Reaction Cleanup Kit (Qiagen, Hilden, Germany). […]
Statistical analysis was performed with GraphPad Prism version 10 software, and data are presented as means ± SEM. Data were assessed for normality using the Shapiro–Wilk test and for homogeneity of variances using Levene’s test. […]

T1 sequence (Q99571 whole entry): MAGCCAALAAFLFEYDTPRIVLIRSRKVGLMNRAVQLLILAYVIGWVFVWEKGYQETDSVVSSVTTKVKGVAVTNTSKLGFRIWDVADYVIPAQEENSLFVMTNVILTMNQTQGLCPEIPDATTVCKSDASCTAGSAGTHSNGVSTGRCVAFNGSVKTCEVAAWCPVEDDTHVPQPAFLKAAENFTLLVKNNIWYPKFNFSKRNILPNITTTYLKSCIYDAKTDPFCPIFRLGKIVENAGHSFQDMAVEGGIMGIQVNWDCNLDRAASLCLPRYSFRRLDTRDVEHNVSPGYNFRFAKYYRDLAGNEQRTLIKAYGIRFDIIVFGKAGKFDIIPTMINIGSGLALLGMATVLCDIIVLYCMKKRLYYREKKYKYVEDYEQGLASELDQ

In turn, `Nc1ncnc2c1ncn2[C@@H]1O[C@H](COP(=O)(O)OP(=O)(O)OP(=O)(O)O)[C@@H](O)[C@H]1O` [ATP, Adenosine 5′-triphosphate] came in with a concentration for a half-maximal effect (EC50) of about 10 µM.
